Results published in PMC8876525 (Viruses, 2022).
Marks after values point to notes of the source that are not given here.

Legend:
[1] = CCK-8 cytotoxicity assay in HepAD38 cells; type: cell-based, Human; settings: human, 6 days
HepAD38 cells = test: CCK-8 cytotoxicity assay in HepAD38 cells; type: cell-based, Human
HBV [2] = test: Secreted HBV DNA in HepAD38 culture supernatant (RT-qPCR); type: cell-based; settings: for EC50: Hepatitis B virus, read-out: EC50 (secreted HBV DNA); for Residual HBV DNA level (secreted) relative to DMSO control: 20 μM compound
HBV encapsidated pgRNA = test: Encapsidated pgRNA and total HBV RNAs (Northern blot); type: cell-based; settings: HepAD38 cells, BAY 41-4109 2 μM; for Effect on HBV encapsidated pgRNA: C-18, C-39, C-19 5 μM, ETV 25 nM
HBV capsid = HBV capsid (Hepatitis B virus genotype D subtype ayw, UniProt P03146); test: Intracellular HBV capsid formation; type: cell-based; settings: HepAD38 or HepG2-HBV1.3 cells, compounds 10 μM, ETV 25 nM, BAY 41-4109 2 μM, 6 days
wild-type HBV = test: Drug susceptibility assay, HepG2 transfected with HBV1.1-WT; type: cell-based; settings: Hepatitis B virus, 144 h; wild-type HBV in HepG2, secreted HBV DNA, 6 days; read-out: viral replication EC50
[3] = tested on: ETV-resistant mutant (rtL180M/S202G/M204V) HBV; test: Drug susceptibility assay, HepG2 transfected with ETV-resistant mutant; type: cell-based; settings: Hepatitis B virus, HepG2, 144 h, read-out: viral replication EC50
HBsAg = test: Secreted HBsAg ELISA; type: cell-based, HBV; settings: 6 days, ETV 25 nM, BAY 41-4109 2 μM
HBc = HBc (Hepatitis B virus genotype D subtype ayw, UniProt P03146); test: Immunofluorescence of HBV core protein in HepAD38 cells; type: cell-based; settings: 3 days, BAY 41-4109 2 μM
[4] = CCK-8 cytotoxicity assay in HepG2-HBV1.3 (HepG2) cells; type: cell-based; settings: human
HBV [5] = test: Secreted HBV DNA in HepG2-HBV1.3 culture supernatant (RT-qPCR); type: cell-based; settings: Hepatitis B virus, 144 h; HepG2-HBV1.3 cells, 6 days
HBV core DNA = test: Intracellular HBV core DNA (qPCR) and replicative intermediates (Southern blot); type: cell-based; settings: 6 days, qPCR
Cp149 protein = Cp149 protein (Hepatitis B virus genotype D subtype ayw, UniProt P03146); test: Cp149 capsid assembly in vitro, transmission electron microscopy; type: biochemical, HBV; settings: Cp149 5 μM dimer, 300 mM NaCl, 150 mM HEPES pH 7.5; BAY 41-4109 5 μM 3 days, C-39 20 μM 3 and 7 days
HBV 3.5 kb RNA = test: Intracellular HBV 3.5 kb RNA (RT-qPCR); type: cell-based; settings: 6 days
HBV [6] = test: HepG2-NTCP de novo HBV infection model (viral markers, cccDNA Taq-Man qPCR); type: cell-based; settings: HepG2-NTCP cells, 5 μM
HBeAg = test: Secreted HBeAg ELISA; type: cell-based, HBV; settings: 6 days

Sequence of HBV capsid (P03146 whole entry): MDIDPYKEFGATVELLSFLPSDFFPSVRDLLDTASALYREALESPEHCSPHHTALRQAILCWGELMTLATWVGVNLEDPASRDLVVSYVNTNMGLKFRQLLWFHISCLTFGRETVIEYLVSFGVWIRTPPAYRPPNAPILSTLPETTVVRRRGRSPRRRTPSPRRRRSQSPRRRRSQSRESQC
Sequence of HBc (P03146 whole entry): as above
Sequence of Cp149 protein (P03146 1-149): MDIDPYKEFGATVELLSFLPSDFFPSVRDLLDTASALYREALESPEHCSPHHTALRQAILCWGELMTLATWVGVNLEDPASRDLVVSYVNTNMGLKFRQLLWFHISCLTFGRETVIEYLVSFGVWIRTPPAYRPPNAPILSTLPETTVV

SMILES	CC50 at 6 days [1] [nM]	Cytotoxicity in words (HepAD38 cells)	SI (CC50/EC50) (HBV [2]; HepAD38 cells)	EC50 (HBV [2]; 144 h, HepAD38 cells, 6 days) [nM]	Effect on intracellular HBV capsid formation at single concentration (HBV capsid)	other results
Cc1cc2c(cc1S(=O)(=O)N1CCCC(C(=O)Nc3ccc(F)c(Cl)c3)C1)OCC(=O)N2 (centres unmarked) [Compound C-29]	18200 ± 2200	medium cytotoxicity	14.1 ^a	1290 ± 10		
C=C1[C@H](CO)[C@@H](O)C[C@@H]1n1cnc2c(=O)[nH]c(N)nc21 [ETV, Entecavir, reference compound]					much less or no inhibition effects	Effect on HBV encapsidated pgRNA (HBV encapsidated pgRNA): upregulated; EC50 (wild-type HBV): 3.2 nM; EC50 [3]: 6.1 nM; EC50 (HBV [2]; HePAD38, 144 h): 3 ± 1 nM; Effect on secreted HBsAg (HBsAg; HepAD38 cells): no impact on HBsAg production; Effect on secreted HBsAg (HBsAg; HepG2-HBV1.3 cells): no impact on HBsAg production
O=C(Nc1ccc(F)c(Cl)c1)C1CCCN(S(=O)(=O)c2c[nH]c(C(=O)N3CCCC3)c2)C1 (centres unmarked) [Compound C-40]	12600 ± 700	medium cytotoxicity	32.3 ^a	390 ± 10		
CC1Oc2ccc(S(=O)(=O)N3CCCC(C(=O)Nc4ccc(F)c(Cl)c4)C3)cc2NC1=O (centres unmarked) [Compound C-35]	9800 ± 1000	medium cytotoxicity	23.9 ^a	410 ± 10		
O=C(CSc1nnc(-c2cccs2)n1CCc1ccccc1)Nc1ccc(F)cc1 [Compound C-7]	> 100000		>54.7	1830 ± 440	moderate inhibition	
CCOC(=O)c1c(C)[nH]c(C)c1S(=O)(=O)N1CCCC(C(=O)Nc2ccc(F)c(Cl)c2)C1 (centres unmarked) [Compound C-37]	11000 ± 700		31.3 ^a	350 ± 50		
CC(=O)N1c2ccc(S(=O)(=O)N3CCCC(C(=O)Nc4ccc(F)c(Cl)c4)C3)cc2CC1C (centres unmarked) [Compound C-31]	25000 ± 3300		96.0 ^a	260 ± 30		
Cc1nnc2ccc(N3CCCC(C(=O)Nc4ccc(F)c(Cl)c4)C3)nn12 (centres unmarked) [Compound C-4]						Residual HBV DNA level (secreted) relative to DMSO control (HBV [2]; HepAD38 cells): 21%
Cc1cccc(NC(=O)c2ccc3nnc(SCC(=O)Nc4ccc(F)c(F)c4)n3c2)c1 [Compound C-16]	72400 ± 1900		56.3	1290 ± 350	did not affect the capsid formation	
CCOC(=O)c1c(S(=O)(=O)N2CCCC(C(=O)Nc3ccc(F)c(Cl)c3)C2)c(C)n(C)c1C (centres unmarked) [Compound C-39]	> 100000	no obvious toxicity		56 ± 13	dramatically inhibited capsid formation	Effect on intracellular total HBV RNAs (HBV encapsidated pgRNA; C-18, C-39 5 μM): slight decrease; Effect on HBV encapsidated pgRNA (HBV encapsidated pgRNA): markedly downregulated; HBc localisation / aggregation (HBc; C-18 and C-39 5 μM): induced punctate HBc aggregation within the nucleus; HBc level by immunofluorescence (HBc; C-39 5 μM): significantly decreased the HBc level; CC50 at 6 days [4]: > 100000 nM; EC50 (HBV [5]): 75 ± 16 nM; EC50 (wild-type HBV): 78 nM; Effect on intracellular HBV core DNA (HBV core DNA; HepAD38 cells): markedly reduced; Effect on intracellular HBV core DNA (HBV core DNA; HepG2-HBV1.3 cells): markedly reduced; EC50 [3]: 84 nM; HBV DNA secretion and intracellular HBV DNA in combination with ETV vs ETV alone (HBV [2]; HepAD38 cells, 5 nM ETV together with C-39 0-10 μM): further inhibition; Effect on secreted HBsAg (HBsAg; HepAD38 cells): no impact on HBsAg production; Effect on secreted HBsAg (HBsAg; HepG2-HBV1.3 cells): no impact on HBsAg production; Morphology of assembled Cp149 particles (TEM) (Cp149 protein): effectively accelerated the formation of capsid-like particles with time; Effect on intracellular HBV 3.5 kb RNA (HBV 3.5 kb RNA; HepAD38 cells): markedly reduced; Effect on intracellular HBV 3.5 kb RNA (HBV 3.5 kb RNA; HepG2-HBV1.3 cells): markedly reduced; Effect on cccDNA formation, treatment together with viral inoculum (day 0) (HBV [6]): prevented the formation of cccDNA during the early postentry step; Effect on pre-established cccDNA, treatment 4 days after infection (day 4) (HBV [6]): minor effect; Effect on secreted HBeAg (HBeAg; HepAD38 cells): markedly reduced; Effect on secreted HBeAg (HBeAg; HepG2-HBV1.3 cells): markedly reduced
Nc1nc(N2C(=O)C3CC=CCC3C2=O)nn1-c1ccccc1 (centres unmarked) [Compound C-5]						Residual HBV DNA level (secreted) relative to DMSO control (HBV [2]; HepAD38 cells): 51%
